Molecular target: TRPV1 (Rattus norvegicus, UniProt O35433)
Assay: Fura-2 calcium imaging in rat DRG neurons
Assay type: cell-based

Sequence of TRPV1 (O35433 whole entry): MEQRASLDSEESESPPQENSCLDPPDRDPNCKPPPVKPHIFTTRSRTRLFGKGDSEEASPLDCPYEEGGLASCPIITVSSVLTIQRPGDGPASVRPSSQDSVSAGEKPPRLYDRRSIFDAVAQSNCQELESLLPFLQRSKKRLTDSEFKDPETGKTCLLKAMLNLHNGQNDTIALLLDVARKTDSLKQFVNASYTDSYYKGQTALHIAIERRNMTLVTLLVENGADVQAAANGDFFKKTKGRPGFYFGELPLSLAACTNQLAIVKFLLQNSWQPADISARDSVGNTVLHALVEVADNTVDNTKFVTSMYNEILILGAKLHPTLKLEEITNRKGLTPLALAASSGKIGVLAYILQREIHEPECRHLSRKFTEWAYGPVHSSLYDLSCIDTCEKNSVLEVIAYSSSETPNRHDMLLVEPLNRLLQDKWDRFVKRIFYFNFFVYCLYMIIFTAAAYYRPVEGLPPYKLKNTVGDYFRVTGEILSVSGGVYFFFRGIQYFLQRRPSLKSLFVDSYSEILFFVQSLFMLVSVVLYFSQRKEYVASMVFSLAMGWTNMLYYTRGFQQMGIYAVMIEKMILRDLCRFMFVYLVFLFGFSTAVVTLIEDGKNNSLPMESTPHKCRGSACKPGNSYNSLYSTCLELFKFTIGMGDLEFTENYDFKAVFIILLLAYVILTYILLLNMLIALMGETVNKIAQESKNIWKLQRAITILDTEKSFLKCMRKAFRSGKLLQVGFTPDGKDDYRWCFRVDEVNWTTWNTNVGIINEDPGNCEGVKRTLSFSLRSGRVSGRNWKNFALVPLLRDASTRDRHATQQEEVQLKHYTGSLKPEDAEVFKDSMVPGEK

**Q.** For C=C(C)[C@@H]1CCC(C)=C[C@H]1c1c(O)cc(CCCCC)cc1O [CBD, Cannabidiol], which EC50 is on record?
**A.** Its EC50 is 1 to 10 µM.

— publication PMC7494392 (Journal of Pain Research, 2020)
